Assays:
MCT1 = experiment: Localization of MCT1 to mitochondria (Western blot of isolated T cell mitochondria); format: cell-based, mouse; details: Western blot of isolated T cell mitochondria
Description: The inventor further explored the molecular mechanism by which LC led to the shunting of lactic acid to mitochondria. Entry of lactic acid into mitochondria requires the localization of MCT1 to the inner mitochondrial membrane IMM (Redox Biol. 2020 August;35:101454). […] MCT1 is generally recognized as a secreted protein with an endoplasmic reticulum-targeting sequence that enters the endoplasmic reticulum and localizes to the plasma membrane. We hypothesized that LC could induce MCT1 variants with mitochondrial targeting sequences (MTSs). However, no MCT1 variant was found in LC-treated T cells by sequencing analysis, and only one transcript of MCT1 was found after alignment analysis on NCBI. A MTS was found at the N-terminus of MCT-1protein by protein sequence analysis, which was present downstream of the endoplasmic reticulum targeting sequence, forming a double-peak chimeric sequence. This double-peak sequence may direct MCT-1 to target the endoplasmic reticulum or mitochondria, and may be regulated by serine/threonine phosphorylation of PKA or PKC (Avadhani, N. G. 2011. FEBS J 278, 4218-4229).

PKCθ = system: PKCθ
Description: PKCθ is a new member of the PKC family, which is activated by DAG and is widely expressed in T lymphocytes. […] This enzyme has PLC activity and catalyzes the production of DAG from lysosomal phospholipids.

CD8^+ T cells [1] = system: CD8^+ T cells
Description: The lactic acid that enters the mitochondria is further converted into pyruvic acid with the participation of lactate dehydrogenase to enter the TCA cycle for oxidative metabolism. LDHa and LDHb are two major lactate dehydrogenase genes that encode LDHa (also known as M subunit) and LDHb (H subunit). The five LDH isozymes from LDH1 to LDH5 consist of M and H subunits, and are 4H, 3H1M, 2H2M, 1H3M and 4M, respectively.
Furthermore, this study analyzed the molecular mechanism bu which LC promotes the localization and expression of LDHb in mitochondria. […] TFEB is a major regulator of lysosomal functions. […] In addition, Tfeb^fl/fl Lck^cre mice were constructed in this study, and CD8^+ T cells were isolated from the spleen of mice to repeat the above experiments.

CD8^+ T cells [2] = experiment: Cytosolic Ca2+ / lysosomal Ca2+ release in CD8+ T cells; format: cell-based, mouse
Description: Next, we investigated the molecular mechanism by which LC activated TFEB in CD8^+ T cells. It has been reported (Nat Cell Biol. 2015 March;17(3):288-99) that in addition to being able to degrade exogenous or endogenous biomacromolecules, lysosomes, like endoplasmic reticulum and mitochondria, are also storage sites for Ca^2+ and can initiate the transduction of calcium-related downstream signals.
(§1) In order to better track the flow of H^+, ^2D (deuterium)-acetic acid (DAC) or ^2D-sulfuric acid (D2SO4) was added to the culture medium of CD8^+ T cells. […] The K-loop of V-ATPase is located in the hydrophobic lipid bilayer and is essential for the pumping of cytosolic H^+ into the lysosomal lumen. Li^+ has been reported to bind to the K-loop of V-ATPase in Enterococcus hirde and induce deprotonation of the Glul39 residue (J. Am. Chem. Soc. 2011.133. 2860-2863).

lysosomal V-ATPase = experiment: Lysosomal pH, Atp6v0c, H+ (deuterium) flow and Li+ accumulation in CD8+ T cells; format: cell-based, mouse
Experimental: as §1

mouse melanoma B16 cells = details: 75 mg/kg by gavage
Experimental: Lithium carbonate is an inorganic compound with the chemical formula Li2CO3 and a molecular weight of 73.89. Lithium carbonate was prepared as follows: • 1) 1.000 g of lithium carbonate (Sigma, WXBC5202V) was weighed and placed in a beaker containing 50 mL of double-distilled water, and the volume was brought to 100 mL with double-distilled water. • 2) The mixture was mixed well in an ice water bath for 2 hours to fully dissolve the lithium carbonate. • 3) The solution was aliquoted into 50 mL centrifuge tubes and stored at 4° C.
(§2) Model establishment: Cultured mouse melanoma B16 cells were resuspended in PBS buffer and inoculated subcutaneously at 1×10^5 cells/mouse into the right back of the mouse, with an injection volume of 50 μL. The needle of a 1 ml syringe was inserted from the right thigh of the mouse, penetrating under the skin to the back, to inject 50 μL of tumor cell suspension subcutaneously to the mouse to form a translucent lump of skin. Care should be taken not to puncture the skin of the mouse. The needle was quickly withdrawn after the injection, so as to avoid any leaking of tumor cells when withdrawing the needle, which would result in tumorigenesis of multiple subcutaneous tumors. Tumor cells were inoculated as soon as possible to maintain cell viability.

4T1 breast cancer [3] = system: 4T1 breast cancer
Experimental: as §2
(§3) The present inventor further established MC38 colon cancer and 4T1 breast cancer tumor-bearing mouse models.

MC38 colon cancer [4] = system: MC38 colon cancer
Experimental: as §2, §3

4T1 breast cancer [5] = details: 4T1 tumor-bearing mouse model
Description: (§4) The present inventors further established MC38 colon cancer and 4T1 breast cancer tumor-bearing mouse models.

MC38 colon cancer [6] = details: MC38 tumor-bearing mouse model
Description: as §4

OVA-B16 melanoma cells = system: OVA-B16 melanoma cells
Experimental: In order to further verify the anti-tumor immune response specific for CD8^+ T cells induced by LC, on the basis of the established tumor-bearing mice above (Example 7), 1×10^6 CD45.1 OT-1 T tumor-specific CD8^+ T cells were sorted and adoptively transferred through the tail vein to wild-type C57 mice 24 hours before the subcutaneous tumor inoculation. After 24 hours, 1×10^5 OVA-B16 melanoma cells were subcutaneously inoculated into the right back of the mice.

human A375 tumor cells = details: humanized NSG mice
Experimental: Model establishment: NOD.Cg-PrkdcIl2rg<tm1Wjl>SzJ (NSG) mice were irradiated with X-ray irradiation (2 Gy). 10^7 PBMCs from healthy volunteers were adopted into NSG mice through the tail vein within 24 hours. After 24 hours, human A375 tumor cells were digested and counted, 4×10^5 of which were inoculated subcutaneously into the right back of NSG mice, and tumorigenesis generally occurred in about seven days.
(§5) The proportion of tumor-infiltrating human CD8^+ T cells was analyzed on Day 18.

[7] = during administration of lithium carbonate 75 mg/kg by gavage
Experimental: as §5

CD8^+ T cells [8] = system: CD8^+ T cells; remark: listed apart in the source
[9] = patients with bipolar disorder; J Clin Psychopharmacol. 2017; cited from earlier work

O=C([O-])[O-].[Li+].[Li+] [LC, lithium carbonate]
expression / localization of MCT1 in mitochondria (MCT1): significantly increased | DAG levels in CD8^+ T cells (PKCθ): increased | expression of acid sphingomyelinase (ASM) in lysosomes (PKCθ): increased | localization of PKCθ to lysosomes (PKCθ): could induce | PKCθ activation (PKCθ; ASM expression interfered with shASM): could not induce | expression of LDHa (CD8^+ T cells [1]): up-regulated | expression of LDHb (CD8^+ T cells [1]): up-regulated | expression and nuclear localization of TFEB (CD8^+ T cells [1]; results not shown): significantly up-regulated | expression of Mcoln2 (CD8^+ T cells [2]): increased | cytosolic Ca^2+ concentrations (CD8^+ T cells [2]; results not shown): increased | expression of lysosome-related gene Atp6v0c (lysosomal V-ATPase): significantly decreased | lactylation of the Atp6v0c gene (ChIP-seq) (lysosomal V-ATPase): disappeared | entry of deuterium ions into the lysosomal lumen (lysosomal V-ATPase; 2D-acetic acid or 2D-sulfuric acid added to culture medium): significantly inhibited | lysosomal pH (lysosomal V-ATPase; LA-treated cells, increased from 4.4 within 30 minutes): 5.9 | growth of B16 tumors (mouse melanoma B16 cells; 5 doses from Day 7): effectively inhibit | survival of mice (mouse melanoma B16 cells; B16): prolong | number of tumor-infiltrating CD8^+ T cells (mouse melanoma B16 cells; B16, 5 doses from Day 7, Day 18): increase | expression of the effectors IFN-γ and CD107a (mouse melanoma B16 cells; B16, Day 18): increase | expression of the effectors IFN-γ and CD107a (4T1 breast cancer [3]; 4T1): increase | survival of mice (4T1 breast cancer [3]; 4T1): prolong | number of tumor-infiltrating CD8^+ T cells (4T1 breast cancer [3]; 4T1, treated as B16 model): increase | growth of 4T1 breast cancer (4T1 breast cancer [3]; mouse, in vivo): effectively inhibit | expression of the effectors IFN-γ and CD107a (MC38 colon cancer [4]; MC38): increase | survival of mice (MC38 colon cancer [4]; MC38): prolong | number of tumor-infiltrating CD8^+ T cells (MC38 colon cancer [4]; MC38, treated as B16 model): increase | growth of MC38 colon cancer (MC38 colon cancer [4]; mouse, in vivo): effectively inhibit | therapeutic effect of an anti-PD-1 antibody (tumor size, survival rate) (4T1 breast cancer [5]): enhance | therapeutic effect of an anti-PD-1 antibody (tumor size, survival rate) (MC38 colon cancer [6]): enhance | tumor growth in mice (OVA-B16 melanoma cells; OVA-B16): inhibit | expression of the effectors IFN-γ and CD107a (OVA-B16 melanoma cells; OVA-B16, Day 18): increase | number of tumor-infiltrating CD8^+ T cells (OVA-B16 melanoma cells; OVA-B16, OT-1 adoptive transfer model, LC 75 mg/kg gavage, Day 18): increase | efficacy of T cell adoptive therapy (OVA-B16 melanoma cells; OVA-B16 melanoma tumor-bearing mice): enhances | tumor growth in mice (human A375 tumor cells): inhibited | infiltration of human CD8^+ T cells (human A375 tumor cells; LC 75 mg/kg gavage, Day 18): significantly increased | blood lithium concentration of mice (monitored and maintained) [7]: 1 mM | level of extracellular lactic acid (CD8^+ T cells [8]): reduced | uptake of exogenous lactic acid by CD8^+ T cells (CD8^+ T cells [8]): did not affect | lactic acid in mitochondria (CD8^+ T cells [8]; 2D-lactic acid tracing, 2 hours after treating with LC): highly accumulated | elevation in lactic acid levels in activated CD8^+ T cells caused by exogenous lactic acid (CD8^+ T cells [8]; 13C-lactic acid tracing): counteracted | mitochondrial m+3 lactic acid, nuclear m+3 lactic acid and lactyl-CoA (CD8^+ T cells [8]; 13C-lactic acid tracing, after 24 hours): almost undetectable | oxidation products of lactic acid (m+2 citric acid, m+4 malic acid) (CD8^+ T cells [8]; after 24 hours): more oxidation products of lactic acid were detected | levels of intracellular lactic acid and histone Kla (CD8^+ T cells [8]; after 24 hours, versus control group): significantly lower | lactic acid levels in the cerebrospinal fluid [9]: significantly down-regulate

— US20250276008A1, “USE OF LITHIUM-CONTAINING COMPOUNDS IN TREATMENT OF TUMORS” (Institute of Basic Medical Sciences Chinese Academy of …, priority 2023, published 2025)
